Measured values published in patent publication US20240316087A1, “Compositions And Methods For Inducing Apoptosis In Anaerobic Cells And Related Clinical Methods For Treating Cancer And Pathogenic Infections” (priority 2017, published 2024).

How the values were obtained:
[1] = test system: circulating tumor cells (CTCs); test: Salicinium induction of apoptosis in cultured circulating tumor cells from patient samples; type: cell-based, human
Source text: Circulating tumor cells (CTCs) were isolated and characterized from patients with diverse diagnoses of cancer (including a wide variety of primary cancer types, with and without metastasis) using conventional flow cytometry modified to a multiparameter flow cytometric panel employing magnetic bead separation methods to characterize CTCs and isolate them from patient blood samples. In one exemplary modified procedure for isolating and characterizing CTCs from breast cancer patients, the flow cytometry panel included CD45-PE/Cy7, CD31-RPE, pan cytokeratin-PE/Cy5, c-met-PE and MUC-1(CD227)-FITC. CTCs were identified as CD45-/CD31-/PanCK+/MUC1+and metastatic cells as CD45-/c-met+. CTC isolation and cultivation utilized PBMCs from patients isolated using ficoll centrifugation methods and incubated with EpCAM magnetic beads to isolate the CTCs.
Isolated CTCs were cultured in serum free RPMI medium. […] Apoptosis quantification was based on observed cytoplasmic, nuclear and membrane changes diagnostic for apoptosis. In early stage of apoptosis, cells expand and become round, detach from adjacent cells or substrate and shrink. In the cytoplasm, the endoplasmic reticulum expands and turns vacuolar. In the nucleus, chromatin condenses in a crescent form around the nuclear membranes and becomes more basophilic. Eventually the nucleus fragments and cells convert to apoptotic bodies in containing fragmented nuclear and cellular materials. In vivo these apoptotic bodies are recognized and digested by phagocytes without raising inflammatory responses.
Data were analyzed using SPSS software, and T test methodology was used to compare data sets. A significance level of p<0.05 was considered statistically significant.

caspase-9 = test: Caspase-9 levels in Salicinium-treated versus control CTC samples; type: cell-based, human; details: diverse CTCs from different cancer types
Source text: Additional studies evaluated caspase levels in CTC samples treated or untreated with Salicinium. Caspases are major executants of apoptosis. […] During apoptosis these pro-enzymes are converted into active enzymes which mediate apoptosis in part by degrading intracellular proteins, for example cytoskeletal proteins, causing profound morphological changes of cells. Caspase-3 is activated by upstream caspases (caspase-8, caspase-9 or caspase-10), and in turn Caspase-3 activates endonuclease CAD (caspase activated DNase). […] In apoptosis, ICAD is cut by caspase-3 and release CAD, followed by rapid fragmentation of DNA.
Caspase-9 levels were compared in control CTC samples and Salicinium-treated CTC samples according to conventional assay methods.

[2] = test system: EBV, hepatitis C, CMV and herpes II virus; test: Viral load assays in treated patients; type: in vivo, human
Source text: These patients were selected as having been diagnosed with a heavy load, chronic viral infection and/or Stage IV cancer. Some of these subjects presented with only viral infection, and some with only Stage IV cancer, whereas a sizeable group of 64 subjects had co-morbid Stage IV cancer attended by a heavy load chronic viral infection. The principal viral subjects in these studies were Epstein Barr virus (EBV), hepatitis C virus, cytomegalovirus (CMV) and herpes virus.
Nagalase levels and viral load were quantified using conventional assays for each patient, before and after successive iv Salicinium® treatments, and after extended oral Salicinium follow-on therapy (using the […] and oral treatment protocol described in Example II, above).

[3] = test system: proliferating cancer and non-cancer cells and viral-infected cells; test: Salicinium uptake into proliferating and viral-infected cells; type: cell-based
[4] = 967 patient CTC samples, helicidum 0.5 mg/ml, 24 hours

4-(beta-D-allopyranosyloxy)-benzaldehyde [Salicinium]
patient CTC samples showing no detectable apoptotic activity [1, 4]: 18% | patient CTC samples showing statistically significant sensitivity to induction of apoptosis [1, 4]: 82% | CTC cells in sample undergoing apoptosis ([1]; majority of other cancer types tested, single exposure, 24-hour test period): 20-25% | CTC cells in sample undergoing apoptosis ([1]; more sensitive cancer types: lung, colorectal, sarcoma and renal cancer, single dose, 24 hours): 30-35% | caspase-9 levels in treated versus control CTC samples (caspase-9): potent induction of elevated caspase-9 levels | treated subjects in whom high load viral infection became undetectable ([2]; EBV and herpes II subjects, within six months following initial iv treatment): 50% | drop in median viral loads ([2]; EBV, hepatitis C, CMV and herpes II, first month): 20-25% | additional drop in median viral loads ([2]; EBV, hepatitis C, CMV and herpes II, within three months after treatment): 20% | viral subjects entirely clear of detectable virus ([2]; EBV, hepatitis C, herpes virus and CMV, after one year): 87% | increase of Salicinium uptake compared to healthy cells ([3]; often): 2-5 times | increase of Salicinium uptake compared to healthy cells ([3]; routinely, GLUT-mediated and other glycome transport): 50-100% | increase of Salicinium uptake compared to healthy cells ([3]; up to): 10-15 times
